Experimental data taken from patent US20160120915A1, “METHODS FOR MANIPULATING IMMUNE RESPONSES BY ALTERING MICROBIOTA” (NEW YORK UNIVERSITY, priority 2013, published 2016).

Tests used:
ileum [1] = assay: TRANSTAT: ileal expression by qPCR in 18-week microbiota donor mice; type: in vivo, C57BL6J mice; settings: 18-week STAT-donor mice vs control donors
Method: (§1) Total RNA was extracted from mouse tissues using the RNeasy Mini Kit (Qiagen), according to the manufacturer's instructions. Total RNA was reverse transcribed to cDNA using the Verso™ cDNA Synthesis Kit (Thermo Scientific). To generate standards for expression analysis of each target gene, the cDNA region of interest was PCR-amplified and the PCR product was cloned into pGEM-T easy (Promega). qPCR was performed with LightCycler 480 SYBR Green I Master mix (Roche) and run in a LightCycler 480 system (Roche). Target mRNA was normalized to GAPDH mRNA as an internal control in each sample.
C57BL/6J (Jackson Labs, Bar Harbor, Me.) mice either received no antibiotics (control) or continuous STAT penicillin. Mice were weaned at 4 weeks onto normal chow (13.2% fat, 5053 PicoLab Rodent Diet 20, LabDiet, Brentwood, Mo.), then changed to a high fat diet (45% kcal from fat, D12451, Research Diets, New Brunswick, N.J.) at 6 weeks of life. At 18 weeks of age, from each group (Control, n=9; STAT, n=8), the three animals with weight at or closest to the median were selected as cecal content donors. Donor mice were humanely euthanized, and the proximal ⅓ of the cecum was aseptically removed and after a series of processing steps, either the pooled Control or STAT microbiota suspensions were placed in the stomachs of the germ-free recipients (Control, n=7 recipients; STAT, n=8) by oral gavage. Recipients were chosen randomly, and the inoculum alternated between control and STAT recipients. […] The microbiota-recipient mice were housed in autoclaved cages, under specific pathogen-free conditions, and fed an irradiated high fat diet (45% kcal from fat, D12451, Research Diets, New Brunswick, N.J.), and followed for the next 35 days until sacrifice. Fecal pellets were collected serially from the time of transfer.
Mice were fed normal chow, then switched to high fat diet at 6 weeks of age. At 18 weeks, cecal contents were collected from 3 control and 3 STAT mice, based on their median weight, pooled, and transferred to 3-4 week old germ-free Swiss Webster mice by oral gavage. Every attempt was made to maintain viability of the microbiota by protecting the microbiota from oxygen and minimizing time between microbiota collection and transfer. Microbiota recipient mice were monitored for 5 weeks, then ileal samples were collected to assess immunity by flow cytometry and qPCR. Ileal gene expression was also measured by microarray and Nanostring Immunology Panel (FIG. 13).
Expression levels were measured by qPCR and normalized by GAPDH expression.

[2] = tested on: Candidatus Arthromitus (segmented filamentous bacteria, SFB); assay: SFB relative abundance by 16S rRNA sequencing in microbiota donors; type: in vivo, C57BL6J mice; settings: STAT donors, all time points
Text: As above, mice were weaned onto normal chow at 4 weeks and switched to HFD at 6 weeks of age. Cecal microbiota was collected at 18 weeks of age and transferred to 3 to 4-week old germ-free Swiss-Webster mice, which were then housed in specific pathogen-free (SPF) conditions and fed HFD. Longitudinal fecal samples were collected and microbial communities were profiled by 16S rRNA sequencing using standard universal primers (Caporaso et al., ISMEJ 2012, 8:1621-4) at an average depth of approximately 5,800 sequences per sample.
Taxonomy was assigned based on the Green Genes May 2013 database, and the percentage of sequences classified as Candidatus Arthromitus, the candidate genus name for segmented filamentous bacteria (SFB), was calculated. […] SFB was present in all 3 control donor mice at levels >1%. SFB was undetectable in STAT donors at all time points, and in the Control donors following the switch to a HFD (8 weeks and beyond). SFB was nearly undetectable in microbiota recipients. Only one STAT-recipient mouse had SFB detected, and it was only one sequence that was classified as SFB out of 7,657 total sequences. SFB was not detected in any of the 7 Control or the other 7 STAT microbiota-recipients. […] Other microbiota taxa are thus important in the transferred phenotype.

ileum [3] = assay: EarlySTAT: ileal gene expression by qPCR in 4- and 8-week mice; type: in vivo, C57BL/6J mice; settings: STAT vs control
Text: C57BL/6J (Jackson Labs, Bar Harbor, Me.) mice either received no antibiotics (control) or continuous STAT penicillin. Mice were weaned at 4 weeks onto normal chow (13.2% fat, 5053 PicoLab Rodent Diet 20, LabDiet, Brentwood, Mo.), then switched to a high fat diet (45% kcal from fat, D12451, Research Diets, New Brunswick, N.J.) at 6 weeks of life. Mice were sacrificed at 4, 8, and 18 weeks of age. The terminal[1 cm] ileum without Peyer's Patches [TI-] was collected for gene expression analysis by qPCR. The proximal 1 cm of ileum was used for histological analysis of tissue structure, and the remaining ileum was used to determine immunity phenotypes by flow cytometry.
C57BL6J mice were exposed to sub-therapeutic antibiotic treatment (STAT) with penicillin via their drinking water from birth, or no antibiotics (Control). Mice were fed a normal diet until 6 weeks of age, then they were fed high fat diet. 5 mice from each experimental group were sacrificed at 4 weeks, and 4 mice from each group were sacrificed at 8 weeks. The terminal[1 cm] ileum without Peyer's Patches [TI-] was collected for gene expression analysis by qPCR. The proximal 1 cm of ileum was used for histological analysis of tissue structure, and the remaining ileum was used to determine immunity phenotypes by flow cytometry. Ileal gene expression was also measured by microarray and the nCounter GX Mouse Immunology Kit (Nanostring Technologies, Seattle, Wash., USA).
as §1
Ileal expression of T-bet [Th1], GATA3 [Th2], Foxp3 [Treg], and RORγt [Th17] (FIG. 4A), and IFNγ [Th1], IL-4 [Th2], TGFβ1 [Treg], and IL-17 [Th17] (FIG. 4B) (4-week; Control, n=4, STAT, n=5, 8-week; Control, n=3, STAT, n=4) was quantitated by qPCR and normalized by GAPDH expression. […] These studies provide evidence that low dose antibiotic exposure can be used to change immune effector T-cell populations and the effector molecules they produce.
Ileal expression of defensin β1, Reg3γ, and Relmβ (4-week; Control n=4, STAT n=5, 8-week; Control n=3, STAT n=4) was quantitated by qPCR and normalized by GAPDH expression. […] These findings provide examples of how the STAT exposure changed intestinal expression of antimicrobial peptide genes.
Ileal expression of the IgA J-chain, polymeric Ig receptor (pIgR), both related to polymeric IgA function, and TLR2 and TLR4 was quantitated by qPCR and normalized by GAPDH expression in 4- and 8-week STAT [4-week; Control n=3, STAT n=4, 8-week; Control n=3, STAT n=4].

[4] = 4- and 8-week, qPCR and microarray

CC1(C)S[C@@H]2[C@H](NC(=O)COc3ccccc3)C(=O)N2[C@H]1C(=O)[O-].[K+] [STAT, penicillin VK]
significantly lower: ileal Relmβ expression (ileum [3]; at 4 weeks, p<0.05) | ileal expression of all three antimicrobial peptides (defensin β1, Reg3γ, Relmβ) (ileum [3]; at 8 weeks, p<0.05)
significantly down-regulated: ileal expression of IL-17A (ileum [1]) | ileal expression of Reg3γ (ileum [1]) | ileal expression of defensin β1 (ileum [1]) | ileal B cell markers (IgA J-chain, pIgR) (ileum [3]; [4]) | ileal expression of IL-17 [Th17] (ileum [3]; at 4- and 8-weeks, p<0.05) | ileal expression of RORγt [Th17] (ileum [3]; at 4- and 8-weeks, p<0.05) | ileal expression of T-bet [Th1] (ileum [3]; at 4- and 8-weeks, p<0.05) | ileal expression of IFNγ [Th1] (ileum [3]; at 4-weeks, p<0.05) | ileal expression of GATA3 [Th2] (ileum [3]; at 8-weeks, p<0.05) | ileal expression of TGFβ1 [Treg] (ileum [3]; at 8-weeks, p<0.05)
trended downwards: expression of all four transcription factors (T-bet, GATA3, Foxp3, RORγt) (ileum [3]; 4- and 8-week mice)
undetectable: SFB relative abundance [2]
downward trend: ileal expression of IL-17F (ileum [1]) | ileal expression of RORγt (ileum [1]) | ileal TLRs (TLR2, TLR4) (ileum [3]; [4])
